Data taken from patent US8952024B2, “Herbicidal pyrimidone derivatives” (E I du Pont de Nemours and Company, priority 2009, dated 2015).

Assays:
Type in all cases: in vivo
rice (Oryza sativa) = assay: Test B flooded paddy test; details: for Plant response rating, Flood, Rice: 250 g ai/ha, flooded paddy test, visual rating on 0 to 100 scale (0 no effect, 100 complete control) after 13 to 15 days; for Plant response rating, Rice: Flood (flooded paddy test), 13 to 15 days; for Rice plant response rating: Flood, 31 g ai/ha, scale 0 to 100 (0 no effect, 100 complete control)
Summary of the method: (§1)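 Each compound is added to standing floodwater (3 cm above soil, maintained) in pots of 2-leaf-stage plants; greenhouse exposure lasts 13–15 d before visual comparison with controls on a 0–100 control scale.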

[1] = system: barnyardgrass (Echinochloa crus-galli); assay: Test B flooded paddy test; details: for Plant response rating, Flood, Barnyardgrass: 250 g ai/ha, flooded paddy test, visual rating on 0 to 100 scale (0 no effect, 100 complete control) after 13 to 15 days; for Plant response rating, Barnyardgrass: Flood (flooded paddy test), 13 to 15 days; for Barnyardgrass plant response rating: Flood, 31 g ai/ha, scale 0 to 100 (0 no effect, 100 complete control)
Summary of the method: as §1

[2] = system: ducksalad (Heteranthera limosa); assay: Test B flooded paddy test; details: for Plant response rating, Flood, Ducksalad: 250 g ai/ha, flooded paddy test, visual rating on 0 to 100 scale (0 no effect, 100 complete control) after 13 to 15 days; for Plant response rating, Ducksalad: Flood (flooded paddy test), 13 to 15 days; for Ducksalad plant response rating: Flood, 31 g ai/ha, scale 0 to 100 (0 no effect, 100 complete control)
Summary of the method: as §1

[3] = system: umbrella sedge (Cyperus difformis); assay: Test B flooded paddy test; details: for Plant response rating, Flood, Sedge, Umbrella: 250 g ai/ha, flooded paddy test, visual rating on 0 to 100 scale (0 no effect, 100 complete control) after 13 to 15 days; for Plant response rating, Sedge, Umbrella: Flood (flooded paddy test), 13 to 15 days; for Sedge, Umbrella plant response rating: Flood, 31 g ai/ha, scale 0 to 100 (0 no effect, 100 complete control)
Summary of the method: as §1

[4] = system: morningglory (Ipomoea spp.); assay: Test A pre-/postemergence plant response; details: for Morningglory plant response rating: visual injury, 0 to 100 scale (0 no effect, 100 complete control), approx. ten days
Description: (§2) Seeds of barnyardgrass (Echinochloa crus-galli), large crabgrass (Digitaria sanguinalis), giant foxtail (Setaria faberii), morningglory (Ipomoea spp.), pigweed (Amaranthus retroflexus), velvetleaf (Abutilon theophrasti), wheat (Triticum aestivum) and corn (Zea mays) were planted into a blend of loam soil and sand and treated preemergence with a directed soil spray using test chemicals formulated in a non-phytotoxic solvent mixture which included a surfactant. At the same time these species were also treated with postemergence applications of test compounds formulated in the same manner.
(§3) Plants ranged in height from two to ten cm and were in the one- to two-leaf stage for the postemergence treatment. Treated plants and untreated controls were maintained in a greenhouse for approximately ten days, after which time all treated plants were compared to untreated controls and visually evaluated for injury. Plant response ratings, summarized in Table A, are based on a 0 to 100 scale where 0 is no effect and 100 is complete control. A dash (-) response means no test result.

[5] = system: wheat (Triticum aestivum); assay: Test A pre-/postemergence plant response; details: for Wheat plant response rating: visual injury, 0 to 100 scale (0 no effect, 100 complete control), approx. ten days
Description: as §2, §3

[6] = system: pigweed (Amaranthus retroflexus); assay: Test A pre-/postemergence plant response; details: for Pigweed plant response rating: visual injury, 0 to 100 scale (0 no effect, 100 complete control), approx. ten days
Description: as §2, §3

[7] = system: barnyardgrass (Echinochloa crus-galli); assay: Test A pre-/postemergence plant response; details: for Barnyardgrass plant response rating: visual injury, 0 to 100 scale (0 no effect, 100 complete control), approx. ten days
Description: as §2, §3

[8] = system: velvetleaf (Abutilon theophrasti); assay: Test A pre-/postemergence plant response; details: for Velvetleaf plant response rating: visual injury, 0 to 100 scale (0 no effect, 100 complete control), approx. ten days
Description: as §2, §3

[9] = system: giant foxtail (Setaria faberii); assay: Test A pre-/postemergence plant response; details: for Foxtail, Giant plant response rating: visual injury, 0 to 100 scale (0 no effect, 100 complete control), approx. ten days
Description: as §2, §3

corn (Zea mays) = assay: Test A pre-/postemergence plant response; details: for Corn plant response rating: visual injury, 0 to 100 scale (0 no effect, 100 complete control), approx. ten days
Description: as §2, §3

[10] = system: large crabgrass (Digitaria sanguinalis); assay: Test A pre-/postemergence plant response; details: for Crabgrass, Large plant response rating: visual injury, 0 to 100 scale (0 no effect, 100 complete control), approx. ten days
Description: as §2, §3

[11] = 62 g ai/ha, scale of 0 to 100 where 0 is no effect and 100 is complete control
[12] = 125 g ai/ha, scale 0 to 100, 0 is no effect, 100 is complete control
[13] = Postemergence, 125 g ai/ha, 0 to 100 scale where 0 is no effect and 100 is complete control
[14] = Preemergence, 125 g ai/ha, 0 to 100 scale, 0 = no effect, 100 = complete control
[15] = Preemergence, 500 g ai/ha, 0 to 100 scale, 0 = no effect, 100 = complete control

C#Cc1ccc(-c2ncc(C(=O)C3=C(O)CCCC3=O)c(=O)n2C2CCCCC2)cc1 [Compound 216]
50: Ducksalad plant response rating [2] | Plant response rating, Pigweed [6, 15]
100: Plant response rating, Flood, Sedge, Umbrella [3] | Velvetleaf plant response rating ([8]; Postemergence, 500 g ai/ha)
65: Plant response rating, Sedge, Umbrella [3, 11]
90: Plant response rating, Ducksalad [2, 11] | Plant response rating, Ducksalad [2, 12] | Morningglory plant response rating ([4]; Postemergence, 500 g ai/ha) | Plant response rating, Pigweed [6, 13] | Pigweed plant response rating ([6]; Postemergence, 500 g ai/ha) | Barnyardgrass plant response rating ([7]; Postemergence, 500 g ai/ha) | Plant response rating, Velvetleaf [8, 13]
30: Plant response rating, Morningglory [4, 15] | Wheat plant response rating ([5]; Postemergence, 500 g ai/ha) | Plant response rating, Velvetleaf [8, 15] | Plant response rating, Foxtail, Giant [9, 13]
20: Plant response rating, Wheat [5, 13] | Plant response rating, Barnyardgrass [7, 15] | Plant response rating, Corn (corn (Zea mays); [15])
40: Plant response rating, Crabgrass, Large [10, 13]
0: Plant response rating, Flood, Rice (rice (Oryza sativa)) | Plant response rating, Rice (rice (Oryza sativa); [11]) | Plant response rating, Rice (rice (Oryza sativa); [12]) | Rice plant response rating (rice (Oryza sativa)) | Plant response rating, Flood, Barnyardgrass [1] | Plant response rating, Barnyardgrass [1, 11] | Plant response rating, Barnyardgrass [1, 12] | Barnyardgrass plant response rating [1] | Sedge, Umbrella plant response rating [3] | Plant response rating, Morningglory [4, 14] | Plant response rating, Wheat [5, 14] | Plant response rating, Wheat [5, 15] | Plant response rating, Pigweed [6, 14] | Plant response rating, Barnyardgrass [7, 14] | Plant response rating, Velvetleaf [8, 14] | Plant response rating, Foxtail, Giant [9, 14] | Plant response rating, Corn (corn (Zea mays); [13]) | Corn plant response rating (corn (Zea mays); Postemergence, 500 g ai/ha) | Plant response rating, Corn (corn (Zea mays); [14]) | Plant response rating, Crabgrass, Large [10, 14]
10: Plant response rating, Barnyardgrass [7, 13]
95: Plant response rating, Flood, Ducksalad [2]
70: Plant response rating, Morningglory [4, 13] | Foxtail, Giant plant response rating ([9]; Postemergence, 500 g ai/ha)
80: Plant response rating, Sedge, Umbrella [3, 12] | Crabgrass, Large plant response rating ([10]; Postemergence, 500 g ai/ha) | Plant response rating, Crabgrass, Large [10, 15]
60: Plant response rating, Foxtail, Giant [9, 15]

Cc1cccc(-c2ncc(C(=O)C3=C(O)CCCC3=O)c(=O)n2C2CCCCC2)c1 [Compound 185]
100: Plant response rating, Morningglory [4, 13] | Morningglory plant response rating ([4]; Postemergence, 500 g ai/ha) | Pigweed plant response rating ([6]; Postemergence, 500 g ai/ha) | Velvetleaf plant response rating ([8]; Postemergence, 500 g ai/ha)
75: Plant response rating, Flood, Ducksalad [2] | Plant response rating, Ducksalad [2, 12] | Ducksalad plant response rating [2] | Plant response rating, Sedge, Umbrella [3, 11]
80: Foxtail, Giant plant response rating ([9]; Postemergence, 500 g ai/ha)
60: Plant response rating, Flood, Sedge, Umbrella [3]
50: Plant response rating, Barnyardgrass [7, 15] | Plant response rating, Velvetleaf [8, 15] | Plant response rating, Foxtail, Giant [9, 13] | Plant response rating, Foxtail, Giant [9, 15] | Corn plant response rating (corn (Zea mays); Postemergence, 500 g ai/ha) | Plant response rating, Crabgrass, Large [10, 13]
90: Plant response rating, Pigweed [6, 13] | Barnyardgrass plant response rating ([7]; Postemergence, 500 g ai/ha) | Plant response rating, Velvetleaf [8, 13]
0: Plant response rating, Flood, Rice (rice (Oryza sativa)) | Plant response rating, Rice (rice (Oryza sativa); [11]) | Plant response rating, Rice (rice (Oryza sativa); [12]) | Rice plant response rating (rice (Oryza sativa)) | Plant response rating, Flood, Barnyardgrass [1] | Plant response rating, Barnyardgrass [1, 11] | Plant response rating, Barnyardgrass [1, 12] | Barnyardgrass plant response rating [1] | Plant response rating, Wheat [5, 13] | Wheat plant response rating ([5]; Postemergence, 500 g ai/ha) | Plant response rating, Wheat [5, 14] | Plant response rating, Wheat [5, 15] | Plant response rating, Pigweed [6, 14] | Plant response rating, Barnyardgrass [7, 14] | Plant response rating, Velvetleaf [8, 14] | Plant response rating, Foxtail, Giant [9, 14] | Plant response rating, Corn (corn (Zea mays); [13]) | Plant response rating, Corn (corn (Zea mays); [14]) | Plant response rating, Corn (corn (Zea mays); [15]) | Plant response rating, Crabgrass, Large [10, 14]
30: Plant response rating, Morningglory [4, 15] | Plant response rating, Crabgrass, Large [10, 15]
65: Plant response rating, Sedge, Umbrella [3, 12] | Sedge, Umbrella plant response rating [3]
70: Plant response rating, Ducksalad [2, 11] | Plant response rating, Pigweed [6, 15] | Plant response rating, Barnyardgrass [7, 13] | Crabgrass, Large plant response rating ([10]; Postemergence, 500 g ai/ha)
